Where two headings read alike, the source gives them in different places.
What was measured:
[1] = test system: HDACs in nuclear extract of HeLa cells; experiment: HDAC inhibitory activity, fluorescence assay in HeLa nuclear extract; type: biochemical
Procedure: In this in vitro assay, residual HDAC activity was measured in a nuclear extract of HeLa cells after incubation with the different compounds at 5 µM, followed by single endpoint fluorescence measurement.
To obtain nuclear extracts, HeLa cell cultures were used. The HeLa cell line was cultured in high-glucose DMEM medium with phenol red, supplemented with 8% fetal bovine serum (Gibco, Waltham, MA, USA), 1% Penicillin/Streptomycin (10,000 U/mL, Gibco, Waltham, MA, USA), and 1% non-essential amino acids (Gibco, Waltham, MA, USA). Cells were maintained in an incubator at 37 °C and 5% CO2 atmosphere. To obtain the required number of cells for nuclear extraction, two 150 cm^2 flasks were cultured, resulting in approximately 2 × 10^7 cells. The cells were trypsinized with a 10% V/V trypsin solution (Gibco, Waltham, MA, USA) and subsequently centrifuged at 3000 rpm for 10 min for counting with trypan blue using an automatic counter (Mart-Counter 3000, Corning, NY, USA). Solutions for nuclear material extraction were prepared following the protocol of the commercial kit Abcam Ab156064 (ABCAM, Milpitas, CA, USA). For the lysis buffer (solution A), 10 mL was prepared with Tris-HCl (10 mM) pH 7.5, NaCl (10 mM), MgCl2 (15 mM), sucrose (250 mM), EGTA (0.1 mM), and NP-40 (0.5%). For the sucrose buffer (solution B), 15 mL was prepared with Tris-HCl (10 mM) pH 7.5, NaCl (10 mM), MgCl2 (3 mM), and sucrose (30%). For the extraction buffer (solution C), 10 mL was prepared with NaCl (420 mM), EGTA (0.1 mM), HEPES-KOH (50 mM, pH 7.5), EDTA Na₂ (0.5 mM), and glycerol (10%). For every 1 × 10^7 of cells, 1 mL of solution A (lysis buffer) was added and vortexed for 10 s, followed by a 15 min rest in an ice bath. Then, 4 mL of solution B (sucrose buffer) was added, and the mixture was centrifuged at 1300× g for 10 min at 4 °C. The supernatant was discarded, and the nuclear pellet was washed with a solution of NaCl (10 mM) and Tris-HCl (10 mM) at pH 7.5. The nuclear pellet was then resuspended in 100 µL of solution C (extraction buffer), sonicated for 30 s, and placed in an ice bath for 30 min. The nuclear solution was centrifuged at 20,000× g for 10 min and the supernatant, containing the nuclear extract, was collected. The nuclear extracts were stored at −80 °C. The Lowry colorimetric assay was used to standardize the protein concentration of the obtained nuclear extracts. A sample of the nuclear extract and a sample of bovine serum albumin as a control were each added to 1 mL of Lowry reagent (sodium tartrate 0.1 M, sodium bicarbonate 0.1 M, CuSO4 0.01 M, and 50% Folin reagent).
Prior to the experiment, a calibration curve was performed to ensure linearity.
Reactions were prepared in a 96-well plate following the specified volumes and conditions. Initially, the appropriate volume of deionized water (ddH2O) and 10 μL of buffer were added to each well. Subsequently, 5 μL of either acetylated or deacetylated substrate was added, depending on the experimental group.
Inhibition controls included Trichostatin A (TSA) at 1 mM, with 2 μL added to achieve a final concentration of 20 μM. The reaction was initiated by adding 4 μL of HeLa nuclear extract to each well, except for the developer control wells. The plate was incubated at 37 °C for 30 min, followed by the addition of 10 μL of developer solution. After a second incubation at 37 °C for another 30 min, fluorescence was measured using a plate reader with an excitation/emission of 350–380 nm/440–460 nm.
Remaining HDAC activity was estimated using the calibration curve, where the fluorescence units (AFU) obtained for each condition were converted into deacetylated substrate concentration (μM).

MDA-MB-231 cells = experiment: MTT cell viability, MDA-MB-231; type: cell-based; conditions: for IC50: MTT, read-out: Cytotoxic Activity IC50 MDA-MB-231; for Cytotoxic activity, initial viability experiment: MDA-MB-231, 72 h of treatment; for Selectivity Index MCF-10A/ MDA-MB-231: ratio of IC50
Procedure: (§1) The BC cell lines MCF-7 and MDA-MB-231 were cultured in high-glucose DMEM medium with phenol red, supplemented with 7% and 10% fetal bovine serum (Gibco, Waltham, MA, USA), respectively, 1% Penicillin/Streptomycin (10,000 U/mL, Gibco, Waltham, MA, USA), and 1% non-essential amino acids (Gibco, Waltham, MA, USA). Cell cultures were maintained in a temperature-controlled incubator at 37 °C and 5% CO2 atmosphere. For the 72 h assays with MDA-MB-231, 1.8 x 10³ cells/well were seeded in 100 µL of medium.
(§2) The 3-(4,5-dimethylthiazol-2-yl)-2,5-diphenyl tetrazolium bromide assay was used to evaluate the effect of the designed compounds on cell viability. These compounds were initially dissolved in DMSO (dimethyl sulfoxide) as stock solutions at 150 mM. Cells were seeded in 96-well plates (NEST Biotechnology Co., Wuxi, China) at different densities, depending on the cell line used and the incubation time with the treatments, and left in 100 µL of the corresponding culture medium for 24 h to allow for adhesion. Then, the cells were treated with different concentrations of each compound, maintaining a maximum of 0.46% DMSO. After 48 or 72 h of treatment, 20 µL of MTT (5 mg/mL) in phosphate-buffered saline (PBS; Sigma) solution was added to each well and incubated again for 3 h. Subsequently, the blue formazan compound derived from the MTT was dissolved in 100 µL of DMSO. The optical density of the wells was measured at 550 nm using an ELISA reader (MultiSkan, Thermo Scientific, Waltham, MA, USA). Finally, cell viability was expressed as a percentage relative to the negative control (untreated and 0.46% DMSO).
(§3) Cytotoxicity data were analyzed using one-way ANOVA to evaluate differences between the treated groups and the negative control (DMSO). Multiple comparisons with the negative control were performed using Dunnett’s post hoc test. Statistical analysis was performed using GraphPad Prism 10 software (free trial, https://www.graphpad.com/demos/, accessed on 26 June 2024). For the calculation of the IC50s of the compounds, cytotoxicity responses were fitted to a variable slope sigmoidal equation (log(inhibitor) vs. normalized response). A p < 0.05 value was considered statistically significant.

MCF-7 cells = experiment: MTT cell viability, MCF-7; type: cell-based; conditions: for IC50: MTT, read-out: Cytotoxic Activity IC50 MCF-7; for Selectivity Index MCF-10A/ MCF-7: ratio of IC50
Procedure: as §1, §2, §3

[2] = MTT cell viability, non-tumorigenic MCF-10A; type: cell-based; conditions: human, MCF-10A non-cancerous mammary epithelial cells, MTT, non-tumorigenic breast cells, read-out: Cytotoxic Activity IC50 MCF-10A
Procedure: (§4) For the culture of normal breast epithelial cells MCF-10A, DMEM-F12 medium without phenol red was used, supplemented with 5% fetal bovine serum (Gibco, Waltham, MA, USA), 1% Penicillin/Streptomycin (10,000 U/mL, Gibco, Waltham, MA, USA), 1% non-essential amino acids (Gibco, Waltham, MA, USA), 0.33% hydrocortisone, 0.2% insulin (100 U/mL), and 0.002% EGF (1 µg/µL). For the assays with MCF-10A cells, 2.5 × 10^3 cells/well were seeded in 100 µL of medium.
as §2, §3

MCF-10A cells = experiment: MTT cell viability, non-tumorigenic MCF-10A; type: cell-based; conditions: 72 h
Procedure: as §4, §2, §3

[3] = 5 µM, single endpoint fluorescence
[4] = Homo sapiens, MDA-MB-231, 72 h, 72 h

Row | Compound | Effect on HDAC activity [1, 3] | IC50 (MDA-MB-231 cells; [4]) [µM] | Cytotoxic activity, initial viability experiment (MDA-MB-231 cells) | Selectivity Index MCF-10A/ MDA-MB-231 (MDA-MB-231 cells) | IC50 (MCF-7 cells; Homo sapiens, MCF7, 72 h, 72 h) [µM] | Selectivity Index MCF-10A/ MCF-7 (MCF-7 cells) | also measured
1 | CC(=O)NCCCCCC(=O)Nc1ccccc1O [5a, 6-Acetamido-N-(2-hydroxyphenyl) Hexanamide] | slight decrease in HDACs activity |  |  |  |  |  | 
2 | CC(=O)NCCCCCC(=O)Nc1ccc(O)cc1 [5b, 6-Acetamido-N-(4-hydroxyphenyl) Hexanamide] |  | 121 ± 26.7 | significant cytotoxic activity | 1.39 | 230 | 0.74 | IC50 (MCF-7 cells; 72 h): 228 ± 52.9 µM; IC50 at 72 h [2]: 169 ± 20.6 µM
3 | O=C(CCCCCNC(=O)C(F)(F)F)Nc1ccccc1O [6a, N-(2-hydroxyphenyl)-6-(2,2,2-trifluoroacetamido) Hexanamide] | slight decrease in HDACs activity | 226 | significant cytotoxic activity | >2.66 | 254 ± 34.4 | >2.36 | IC50 (MDA-MB-231 cells; 72 h): 225 ± 17.6 µM; fold less toxic than SAHA in MCF-10A cells (MCF-10A cells): ≈ 200 fold
4 | O=C(CCCCCNC(=O)C(F)(F)F)Nc1ccc(O)cc1 [6b, N-(4-hydroxyphenyl)-6-(2,2,2-trifluoroacetamido) Hexanamide] |  | 76.7 | significant cytotoxic activity | 2.01 | 45.7 ± 6.91 | 3.38 | fold more potent than 5b in triple-negative breast cancer cells (MDA-MB-231 cells; 72 h): 1.5 fold; IC50 (MDA-MB-231 cells; 72 h): 76.7 ± 8.52 µM; fold more active than 5b in ER-positive cells (MCF-7 cells; 72 h): 5 fold; IC50 at 72 h [2]: 155 ± 21.6 µM; fold less toxic than SAHA in MCF-10A cells (MCF-10A cells): more than 50 fold
5 | O=C(CCCCCCC(=O)Nc1ccccc1)NO [SAHA, suberoylanilide hydroxamic acid, reference compound] | reduced HDAC activity almost completely |  |  |  |  |  | 
6 | CC(=O)NCCCCCC(=O)O [compound 2, 6-Acetamidohexanoic Acid] | slight decrease in HDACs activity |  |  |  |  |  | 
7 | O=C(O)CCCCCNC(=O)C(F)(F)F [compound 3, 6-(2,2,2-trifluoroacetamido) Hexanoic Acid] | slight decrease in HDACs activity |  |  |  |  |  | 
8 | Trichostatin A [TSA, reference compound] |  |  |  |  |  |  | Effect on HDAC activity ([1]; TSA 20 µM): reduced HDAC activity almost completely

Reference: article PMC11944851, “Computationally Guided Design, Synthesis, and Evaluation of Novel Non-Hydroxamic Histone Deacetylase Inhibitors, Based on N-Trifluoroacetamide as a Zinc-Binding Group, Against Breast Cancer” (Pharmaceuticals, 2025)
